The nature of series [1]: Solubility of biocidal active substances in various solvents, by stepwise concentration of a 10 wt% starting solution at 25°C. In kind it is physicochemical. The protocol:
Die nachfolgenden Beispiele dienen der näheren Erläuterung der Erfindung. Alle Prozentangaben sind Gewichtsprozente, sofern nicht anders angegeben. Tabelle 1: Löslichkeiten von bioziden Wirksubstanzen in verschiedenen Lösemitteln
Die Löslichkeiten wurden durch schrittweises Aufkonzentrieren einer Startlösung bei 10 Gew.-% bei 25°C ermittelt. Tabelle 2: Lagerstabilität von bioziden Wirksubstanzen in verschiedenen Lösemitteln bei -5°C, +20°C und +50°C bei 14 Tagen Lagerdauer

For series [2] the following is noted: in Tierversuchen; cited from earlier work.
Setting [3] is: solvent N-Methylpyrrolidon (NMP), weight percent.
Setting [4] is: solvent Dipropylenglykol (DPG), weight percent.
[5] abbreviates: solvent Tetraethylenglykoldimethylether (TEGDME), weight percent.
Setting [6] is: solvent TEGDME / DPG 1:2,7, weight percent.

Molecules are shown by their SMILES.

In the case of `O=[N+]([O-])C(Br)(CO)CO` [1 (V), 2-Bromo-2-nitro-1,3-propandiol], the “Löslichkeit [25°C]” value in series [1] (setting [3]) is 51%.

Consider `O=[N+]([O-])C(Br)(CO)CO` [4(V), 2-Bromo-2-nitro-1,3-propandiol], for which the “Löslichkeit [25°C]” value in series [1] (setting [4]) is recorded as 26%.

Regarding `CCCCNC(=O)OCC#CI` [5(V), 3-Jod-2-propinyl-butylcarbamat], the “Löslichkeit [25°C]” value in series [1] (setting [3]) came to 45%.

With `CCCCNC(=O)OCC#CI` [8(V), 3-Jod-2-propinyl-butylcarbamat], the “Löslichkeit [25°C]” value in series [1] (setting [4]) was 34%.

`N#CCCC(Br)(C#N)CBr` (stereo not shown) [13(V), 1,2-Dibromo-2,4-dicyanobutan]: the “Löslichkeit [25°C]” value in series [1] (setting [3]) was found to be 39%.

With `N#CCCC(Br)(C#N)CBr` (stereo not shown) [16(V), 1,2-Dibromo-2,4-dicyanobutan], the “Löslichkeit [25°C]” value in series [1] (setting [4]) stood at 21%.

With `O=[N+]([O-])C(Br)(CO)CO` [Beispiel 2, 2-Bromo-2-nitro-1,3-propandiol], the “Löslichkeit [25°C]” value in series [1] (setting [5]) is recorded as 56%.

Turning to `O=[N+]([O-])C(Br)(CO)CO` [Beispiel 3, 2-Bromo-2-nitro-1,3-propandiol], the “Löslichkeit [25°C]” value in series [1] (setting [6]) amounted to 39%.

For the molecule `CCCCNC(=O)OCC#CI` [Beispiel 6, 3-Jod-2-propinyl-butylcarbamat], the “Löslichkeit [25°C]” value in series [1] (setting [5]) was 52%.

Take `CCCCNC(=O)OCC#CI` [Beispiel 7, 3-Jod-2-propinyl-butylcarbamat]: in series [1] (setting [6]), the “Löslichkeit [25°C]” value is 50%.

For the molecule `N#CCCC(Br)(C#N)CBr` (stereo not shown) [Beispiel 14, 1,2-Dibromo-2,4-dicyanobutan], the “Löslichkeit [25°C]” value in series [1] (setting [5]) turned out to be 47%.

In the case of `N#CCCC(Br)(C#N)CBr` (stereo not shown) [Beispiel 15, 1,2-Dibromo-2,4-dicyanobutan], the “Löslichkeit [25°C]” value in series [1] (setting [6]) is listed as 34%.

Regarding `CN1CCCC1=O` [N-Methyl-2-Pyrrolidon], in series [2], the “fruchtschädigende Wirkung” value was “fruchtschädigende Wirkung”.

The record behind these values is patent EP1767091A2, “Biocidal compositions” (Clariant Produkte (Deutschland) GmbH, priority 2005, dated 2007).
